Measured values published in US20230265099A1, “SIK INHIBITORS AND METHODS OF USE THEREOF” (SOLTEGO, INC., priority 2020, published 2023).
Entries after “also recorded” stand apart in the source; their conditions may differ.

Experiments:
[1] = tested on: reconstituted melanized epidermis; assay: Hematoxylin/eosin (H/E) morphology of reconstituted melanized epidermis; assay type: cell-based, human; details: 3 selected doses (0.3, 0.01, 0.0033 μg/ml) in culture medium
Method: Next, absence of toxicity of the three doses was evaluated in reconstituted melanized epidermis by hematoxylin/eosin (H/E) staining of histologic sections.
At the end of the treatments with the test compounds, 3 tissues per dose (n=3) were fixed in 4% formaldehyde, dehydrated and paraffin embedded. Sections of 6 μm of epidermis were stained with eosin and hematoxylin (H/E). Slides were mounted with specific medium and examined with a Leica DM2000 photomicroscope coupled to a digital camera (Zeiss).

[2] = tested on: reconstituted melanized human epidermis (NHEKs and NHEMs-MP melanocytes); assay: Melanin content from Fontana-Masson stained sections of reconstituted melanized human epidermis; assay type: cell-based; details: for melanin content (Fontana-Masson stained sections): % relative to DMSO 0.005%
Method: Based on the results of dose determination studies, 0.3 μg/ml, 0.01 μg/ml and 0.0033 μg/ml doses of SLT-008 were selected for further application in a culture medium of reconstituted melanized human epidermis. The pigmentation effect studies were carried out on epidermis reconstituted with NHEKs (Normal human epidermal keratinocytes, Lonza 00192906) isolated from foreskin of 3 neonatal Caucasian donors and NHEMs-MP melanocytes.
The tissues were cultured at the air-liquid interface in Epilife medium (Fisher Scientific, MEPI500CA) containing specific supplements (with among others Human Keratinocytes Growth Factors, Fisher Scientific S0015 or S001K) and antibiotics (Gentamycin, Fisher Scientific, 15710049). They were maintained in a humid atmosphere at 37° C. with 5% CO2.
Melanocytes were co-cultured with reconstructed epidermis and cultivated at the air-liquid interface during 14 days in culture medium in a humid atmosphere at 37° C. with CO2 5%. SLT-008 was applied in the culture medium at 3 concentrations, during 10 days, from day 4 to day 14 after placement at the air/liquid interface (n=6), with 5 medium refreshes (at day 7, 8, 9, 10 and 11). In order to allow pigmentation of the epidermis, the concentration in BPE (bovine pituitary extract) in culture medium was adapted during the treatments. DMSO at 0.005%, used for the compounds solubilization was used as reference control condition. IBMX at 150 μM and forskolin at 3.33 μM were used as pro-pigmentation reference compounds to validate the experiment. An additional DMSO control at 0.05% corresponding to the solvent of the reference compounds was added as well in the experiment.
At the end of treatments (day 14), a morphology analysis was performed. The epidermis pigmentation was quantified after solvable extraction and quantified through Fontana Masson staining of histologic sections. 6 μm sections of epidermis embedded in paraffin were prepared and stained with Fontana Masson reagents. Fontana Masson staining specifically stains melanin within the epidermis. In order to visualize the epidermis in addition to the melanin, a counterstaining with hemalum/eosin was performed as well. Tissue section staining was performed in three series with one set for each test compound. Slides with sections of epidermis treated with DMSO at 0.005% were put in each set for Fontana Masson staining in order to compare the effects of the SLT-008.
Melanin deposition on 6 μm paraffin sections of each epidermis was stained by Fontana-Masson reagents (VWR-VWRK641295, VWRK641311; Klinipath-641215). […]
For the melanin quantification, 3 pictures of each epidermis were taken and analyzed by using the Leica QWin3 software. […]
Melanin content was determined from Fontana-Masson stained sections (% relative to DMSO 0.005%). […]

[3] = tested on: melanized reconstructed human epidermis; assay: LDH release assay on melanized reconstructed human epidermis; assay type: cell-based
Method: Quantification of lactate dehydrogenase (LDH) release from melanized tissue was performed at mid-treatment and at the end of treatment with the SLT-008 to ensure that the selected doses were not cytotoxic for the melanized reconstructed human epidermis. The release of LDH by the culture model was assessed after 5 and 10 days of treatments with the Cytotoxicity Detection KitPLUS (Roche-04744926001) according to the manufacturer's instructions. Briefly, culture supernatants were collected and mixed with LDH detection reactants in 96-well plates for 30 min before measuring optical density at 490 nm with a reference wavelength of 600 nm using a spectrophotometer (GloMax-Promega). This was performed in triplicates of cultures (n=3). […] The effect of these concentrations was thus studied on the tissue pigmentation (FIG. 5).

[4] = tested on: Primary human epidermal keratinocytes (hEK) cocultured with human epidermal melanocytes; assay: Topical application on keratinocyte/melanocyte coculture skin model, Fontana Masson staining; assay type: cell-based; details: single topical application
Method: Primary human epidermal keratinocytes (hEK) were seeded onto suitable carrier matrices and cocultured with human epidermal melanocytes. SLT-8 was solubilized in PEG/Ethanol/Transcutol® at 0.3 mM, 1 mM and 3 mM and applied topically using a mesh to the surface of the models and removed after 4 hours. Test compounds were applied once daily over a period of 4 days. Untreated models and models treated with the vehicle only served as controls. UV irradiated models were used as positive controls. Fontana Masson staining was conducted to visualize pigmentation effects. Fontana-Masson staining is routinely used to visualize argentaffin substances such as melanin, argentaffin granules and some neurosecretory granules. Melanin is a nonlipid, non-hematogenous pigment. It is a brown-black pigment present normally in the hair, skin, retina, iris, and certain parts of the central nervous system. Argentaffin granules are found in carcinoid tumors. The argentaffin cell granules or melanin stain black. Nuclei stain pink-red. The cytoplasm stains pale pink.

SIK3(h) = SIK3(h) (Homo sapiens, UniProt Q9Y2K2); assay: Salt Induced Kinase inhibition, radiometric [γ-33P]-ATP filter assay, SIK3; assay type: biochemical
reconstructed epidermis = assay: Melanin content by chemical (solvable) extraction of reconstructed epidermis; assay type: cell-based, human; details: applied at 1 and 0.1 μg/ml and more so at 0.3 μg/ml
Method: Using similar methods described previously in this Example, the experiments were repeated. At the end of these treatments, tissues (n=3) were removed from their inserts and immerged in a solvable extraction solution (Perkin Elmer-NJTSRN8010060) and heated at 80° C. for 1 h. The optical density of the supernatants was measured at 490 nm with a spectrophotometer (GloMax-Promega) and the melanin content was determined by comparison with a standard curve of synthetic melanin (Sigma-M8631)

[5] = tested on: human living skin explants; assay: Pigmentation activity on human living skin explants with stripping; assay type: cell-based
Method: The pigmentation activity of SLT-008 at two concentrations was evaluated on skin using human living skin explants with stripping.
Human skin explants of an average diameter of 11 mm (±1 mm) were prepared on an abdominoplasty from a person with a III phototype. The explants were kept alive in BEM culture medium (BIO-EC's Explants Medium) at 37° C. in a humid, 5%-CO2 atmosphere. The study was performed on human skin tissue, obtained from surgical residues in accord with the Declaration of Helsinki and the article L.1243-4 of the French Public Health Code.
On day 0, the explants of the batches “S” were stripped 5 times using scotch 3M to remove some stratum corneum layers to facilitate the penetration of the tested products. The excipient and the tested products were applied topically on the basis of 2 μl per explant (2 mg/cm^2) and spread using a small spatula on day 0 (D0, after the stripping), D1, D4, D6 and D8.
The culture medium was half renewed (1 ml per well) on D0, D1, D4, D6 and D8. On D0, D1, D4, D5, D6, D7 and D8, the culture media of the irradiated explants (TUV) were replaced by HBSS (Hank's Balanced Saline Solution; 1 ml per explant). Then, the explants of the “TUV” batch were irradiated using a UV simulator Vibert Lourmat RMX 3W with a dose of 2.25 J/cm2 of UVA corresponding to 0.5 MED (minimal erythemal dose) for a phototype II donor. […]

[6] = tested on: apoptotic cells in the epidermis of human skin explants; assay: Stripping-induced apoptosis DNA protection study, TUNEL assay on skin explants; assay type: cell-based; details: 0.9% in absolute ethanol, after tape stripping, Day 11, significant
Description: The aim of this study was to perform complementary immunostaining of TUNEL (apoptotic cell marker).
Histological processing: 5-μm-thick sections were made using a Leica RM 2125 Minot-type microtome, and the sections were mounted on Superfrost® histological glass slides. The microscopical observations were realized using a Leica DMLB, an Olympus BX43 or BX63 microscope. Pictures were digitized with a numeric DP72 or DP74 Olympus camera with CellSens storing software.
The staining was semi-quantified by image analysis.
Image analysis method: The images analyses was performed on all the images of the selected batch using CellSens software. Stained surfaces comparisons
The stained surface percentage (Surf %) for the treatment is compared to the untreated condition=>S vs T; SP vs S.

Chain of SIK3(h) (Q9Y2K2 whole entry): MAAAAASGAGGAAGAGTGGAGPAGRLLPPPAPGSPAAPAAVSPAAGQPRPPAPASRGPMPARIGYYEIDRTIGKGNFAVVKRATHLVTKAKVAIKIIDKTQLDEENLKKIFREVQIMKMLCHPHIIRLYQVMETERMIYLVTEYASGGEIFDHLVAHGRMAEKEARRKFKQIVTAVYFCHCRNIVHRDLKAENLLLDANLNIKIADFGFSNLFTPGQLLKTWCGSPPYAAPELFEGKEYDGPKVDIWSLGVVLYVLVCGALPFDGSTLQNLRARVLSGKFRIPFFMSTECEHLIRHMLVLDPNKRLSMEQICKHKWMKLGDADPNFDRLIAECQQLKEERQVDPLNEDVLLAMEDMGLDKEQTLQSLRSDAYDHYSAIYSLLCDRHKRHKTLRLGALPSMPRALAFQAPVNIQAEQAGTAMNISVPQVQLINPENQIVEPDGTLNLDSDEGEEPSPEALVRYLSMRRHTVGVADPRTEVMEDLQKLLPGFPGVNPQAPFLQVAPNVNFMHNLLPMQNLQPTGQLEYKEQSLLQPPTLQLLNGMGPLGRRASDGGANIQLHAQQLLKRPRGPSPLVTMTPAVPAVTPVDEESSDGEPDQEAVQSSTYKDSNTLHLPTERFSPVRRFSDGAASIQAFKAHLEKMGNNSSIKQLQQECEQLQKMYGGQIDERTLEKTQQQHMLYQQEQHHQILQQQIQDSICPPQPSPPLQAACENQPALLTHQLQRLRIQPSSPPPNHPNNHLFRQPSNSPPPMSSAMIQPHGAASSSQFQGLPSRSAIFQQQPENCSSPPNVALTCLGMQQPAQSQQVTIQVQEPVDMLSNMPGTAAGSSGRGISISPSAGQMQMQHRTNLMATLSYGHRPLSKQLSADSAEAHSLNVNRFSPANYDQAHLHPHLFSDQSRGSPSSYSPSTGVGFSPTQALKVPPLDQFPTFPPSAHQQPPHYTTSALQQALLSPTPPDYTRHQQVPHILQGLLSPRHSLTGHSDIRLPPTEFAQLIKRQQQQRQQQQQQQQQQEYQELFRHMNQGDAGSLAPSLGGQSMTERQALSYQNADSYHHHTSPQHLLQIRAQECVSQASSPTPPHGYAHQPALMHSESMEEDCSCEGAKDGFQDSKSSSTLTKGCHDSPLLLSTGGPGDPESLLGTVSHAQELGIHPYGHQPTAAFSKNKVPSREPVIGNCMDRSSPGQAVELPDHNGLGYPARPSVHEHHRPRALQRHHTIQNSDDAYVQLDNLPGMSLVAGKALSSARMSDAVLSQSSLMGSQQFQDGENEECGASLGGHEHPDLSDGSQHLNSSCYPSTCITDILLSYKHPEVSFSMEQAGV

SMILES	morphologic alteration (H/E staining) [1]	melanin content (Fontana-Masson stained sections) ([2]; 0.011 μg/ml)	pigmentation / melanin content (Fontana-Masson) ([2]; 0.3 μg/ml vs DMSO 0.005%)	melanin content (Fontana-Masson stained sections) ([2]; 0.3 μg/ml)	LDH release from tissues ([3]; 0.3 μg/ml, after 10 days of treatment, without reaching the set cytotoxic level)	tissue integrity (LDH release) ([3]; application for 10 days)	melanin pigmentation (Fontana Masson staining) ([4]; 1 mM in PEG/Ethanol/Transcutol)	melanin pigmentation (Fontana Masson staining) ([4]; 3 mM in PEG/Ethanol/Transcutol)	melanin transfer to keratinocytes and nuclear capping ([4]; 3 mM)	IC50 (SIK3(h); Estimated IC50 Values, SIK3(h), ATP 45 μM)	IC50 (SIK3(h); SIK3)	melanin content by chemical extraction (reconstructed epidermis)	cell viability ([5]; 0.5% and 0.9% topical, compared to the stripped batch)	melanin increase ([5]; 0.9% dose, topical, stripped explants, significant (p<0.1))	decrease of apoptotic cell numbers (TUNEL stained surface) [6]	pigmentation (Fontana-Masson) ([2]; positive controls: forskolin 3.33 μM, IBMX 150 μM, vs DMSO 0.05%)
Cc1cccc(C)c1N1Cc2cnc(Nc3ccc(N4CCN(C)CC4)cc3)nc2N(C23CC4CC(CC(C4)C2)C3)C1=O [SLT-008, 1-((3s,5s,7s)-adamantan-1-yl)-3-(2,6-dimethylphenyl)-7-((4-(4-methylpiperazin-1-yl)phenyl)amino)-3,4-dihydropyrimido[4,5-d]pyrimidin-2(1H)-one]	no morphologic alteration	125.6+/−15.4%	significantly increased; also recorded: significant increase	129+/−5.7%	Slight and significant increase	did not induce relevant alteration of the tissue integrity	induced melanin pigment dots at the stratum lucidum level	induced melanin pigment dots at the stratum lucidum level	induced melanin transfer to keratinocytes and nuclear capping was observed	> 20 nM	> 20 nM	increased, with a dose effect	no modification of cell viability	36%	97%	–
CC(C)Cn1c(=O)n(C)c(=O)c2[nH]cnc21 [IBMX, reference compound]	–	–	–	–	–	–	–	–	–	–	–	–	–	–	–	increased
